{"source": "patent US7282507B2", "about": "“Indole derivatives as selective androgen receptor modulators (SARMS)” (Janssen Pharmaceutica N.V., priority 2004, dated 2007)", "target": "T1, androgen receptor LBD (Panvera) (Rattus norvegicus, UniProt P15207)", "T1 construct": "5 pmol androgen receptor LBD (Panvera); purchased Panvera", "T1 sequence (P15207 651-882 limits assumed)": "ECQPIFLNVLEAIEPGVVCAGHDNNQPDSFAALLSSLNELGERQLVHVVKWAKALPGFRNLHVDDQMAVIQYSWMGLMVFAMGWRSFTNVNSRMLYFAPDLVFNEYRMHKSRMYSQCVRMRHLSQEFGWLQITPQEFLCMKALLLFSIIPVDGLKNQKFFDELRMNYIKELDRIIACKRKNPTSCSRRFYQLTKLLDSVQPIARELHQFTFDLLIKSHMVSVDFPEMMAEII", "assay": "Androgen Receptor Filtration Binding Assay (PANVERA)", "conditions": "[3H] R1881 tracer 0.5 nM; read-out: IC50 (nM), Androgen Receptor Binding (Panvera)", "experimental": "The assay was run on a 96 well plate with each well filled with a total reaction volume 150 μL, of a solution containing 5 pmol androgen receptor LBD (Panvera) or 30 μL of freshly prepared rat cytosol, 0.5 nM [^3H] […] (TED buffer contains 10 mM Tris.HCl pH 7.4, 1 mM sodium molybdate, 1.5 mM EDTA, 1 mM DTT and 10% (v/v) glycerol.)\nOn day one, the solution containing receptor, tracer and TED buffer was distributed into a 96 well plate. Diluted test compound or control vehicle was then added to individual wells and the plate incubated at 4° C. overnight.\nOn day two, to each well was then added 20 μL human γ-globulin (ICN 823102), prepared at 25 mg/ml in TE pH 8.0, and 55 μL 40% polyethylene glycol 8000 (J T Baker U222-08), prepared in TE pH 8.0. The plate was incubated at 4° C. for 60 minutes. During incubation, the harvester was rinsed with 10% PEG 8000, prepared in TE pH 8.0, and a GF/C Unifilter-96 was pre-wet with 10% PEG. The binding reaction was filtered, the retentate was washed three times with 10% PEG and dried under vacuum for a couple of minutes, then dried at 50° C. for 5 min and the plate was bottom sealed. Next, 25 μL of Microscint-20 (Packard) was added to the filter wells and the plate was top sealed. The plate wells were then counted on a TopCount (Packard).\nCounts per well were measured and IC50s determined by linear regression."}
{"smiles": "CC(O)(CSc1ccc(N)cc1)c1cc2cc(Cl)c(C(F)(F)F)cc2[nH]1", "note": "(stereo not shown) [Compound 104]", "values": [{"measurement": "IC50", "value": 930, "unit": "nM"}]}
